The text below walks through data of patent publication US20260167623A1 (NIKANG THERAPEUTICS, INC., priority 2022, published 2026).

The test concerns the target T1, CDK2 (Homo sapiens, UniProt P24941).
T1 construct: High-Throughput Measurement of Cellular Endogenous CDK2; endogenous in cells; host or cells: OVCAR3
Nature of the test: Inhibition of CDK2: phospho-Rb (S807/811) HTRF measurement in OVCAR3 cells, 24 h. It is filed as cell-based. The settings on record: 24 h compound treatment, read-out: pRB_OVCAR3_24h. The method, then: Inhibition of CDK2: Phospho-R^b Measurement in Cells
Phosphorylation of RB protein at S807/811 were measured using HTRF phospho-RB cellular kits (Cat #64RBS807PEG) from Cisbio.
On Day 1, OVCAR3 (CDK2 dependent cell line) cells were seeded into 96-well tissue-culture treated plates at 20,000 cells/well in 200 μL and incubated overnight at 37° C. in CO2 atmosphere. On Day 2, the cells were treated with test compounds at concentrations from 0.3 to 10,000 nM using HP D300 digital dispenser. Twenty-four hours after compound treatment, cell culture media is removed by flicking the plate and tapping the plate against clean paper towel. 30 μL 1× lysis buffer was supplemented from the kit was added to each well and the plate was incubated at room temperature on shaker for 30 min. After homogenization by pipetting up and down, 8 μL cell lysate from 96-well cell culture plate was transferred to 384-well small volume white detection plate. 2 μL premixed detection solution was added and the plate was covered with sealer. To prepare the detection solution, d2 conjugated-phospho-RB antibody and Eu-cryptate conjugated phosphor-RB antibody were diluted into detection buffer following manufacturer's instruction. Detection plates were incubated for 4 h at room temperature and read on ClarioStar (BMG Labtech) in TR-FRET mode (665 nM and 620 nM). The TR-FRET ratio (665 nM/620 nM) was plotted against the compound concentration and normalized to DMSO controls. Half maximal inhibition concentration (IC50) values were calculated with a four-parameter logistic fit using GraphPad Prism (version 8; La Jolla, CA).
(TR-FRET usually uses a lanthanide donor and a delayed reading to cut background.)

Each structure is given as a SMILES string. Some results are limits rather than exact numbers.

Consider `Cn1nc(N2CCC(=O)NC2=O)c2ccc(C3CCN(Cc4cccc(S(=O)(=O)N5CCC(Nc6ncc(OC(F)F)cn6)CC5)c4)CC3(F)F)cc21` (stereo not shown) [Example 75, 1-(6-(1-(3-((4-((5-(difluoromethoxy)-pyrimidin-2-yl)amino)piperidin-1-yl)sulfonyl)benzyl)-3,3-difluoropiperidin-4-yl)-1-methyl-1H-indazol-3-yl)dihydropyrimidine-2,4(1H,3H)-dione], for which the IC50 lay in the range of 100 to 500 nM.

Take `O=C1CCC(Nc2ccc(N3CCN(Cc4cccc(S(=O)(=O)N5CCC(Nc6ncc(C(F)(F)F)cn6)CC5)c4)CC3)cc2)C(=O)N1` (stereo not shown) [Example 78, 3-((4-(4-(3-((4-((5-(trifluoromethyl)-pyrimidin-2-yl)amino)piperidin-1-yl)sulfonyl)benzyl)piperazin-1-yl)phenyl)amino) piperidine-2,6-dione]: the IC50 lay within 100 to 500 nM.

Turning to `O=C1CCC(N2C(=O)c3cc(F)c(N4CCN(CC5CCN(c6cccc(S(=O)(=O)N7CCC(Nc8ncc(Cl)cn8)CC7)c6)CC5)CC4)cc3C2=O)C(=O)N1` (stereo not shown) [Example 79, 5-(4-((1-(3-((4-((5-chloropyrimidin-2-yl)amino)piperidin-1-yl)sulfonyl)phenyl)-piperidin-4-yl)methyl)piperazin-1-yl)-2-(2,6-dioxopiperidin-3-yl)-6-fluoroisoindoline-1,3-dione], the IC50 was 500 to 2500 nM.

As for `O=C1CCC(N2C(=O)c3cc(F)c(N4CCN(CC5CCN(c6cccc(S(=O)(=O)N7CCC(Nc8ncc(C(F)(F)F)cn8)CC7)c6)CC5)CC4)cc3C2=O)C(=O)N1` (stereo not shown) [Example 80, 2-(2,6-dioxopiperidin-3-yl)-5-fluoro-6-(4-((1-(3-((4-((5-(trifluoromethyl)pyrimidin-2-yl)amino)piperidin-1-yl)sulfonyl)phenyl)-piperidin-4-yl)methyl)piperazin-1-yl)isoindoline-1,3-dione], the IC50 lay in the range of 100 to 500 nM.

Consider `Cn1nc(N2CCC(=O)NC2=O)c2ccc(C3CN(Cc4cccc(S(=O)(=O)N5CCC(Nc6ncc(OC(F)F)cn6)CC5)c4)C3)cc21` [Example 81, 1-(6-(1-(3-((4-((5-(difluoromethoxy)-pyrimidin-2-yl)amino)piperidin-1-yl)sulfonyl)benzyl)azetidin-3-yl)-1-methyl-1H-indazol-3-yl)dihydropyrimidine-2,4(1H,3H)-dione], for which the IC50 is 500 to 2500 nM.

Consider `O=C1CCN(c2ccc(N3CCN(Cc4cccc(S(=O)(=O)N5CCC(Nc6ncc(C(F)(F)F)cn6)CC5)c4)CC3)cc2)C(=O)N1` [Example 82, 1-(4-(4-(3-((4-((5-(trifluoromethyl)-pyrimidin-2-yl)amino)piperidin-1-yl)sulfonyl)benzyl)piperazin-1-yl)phenyl) dihydropyrimidine-2,4(1H,3H)-dione], for which the IC50 lay in the range of 500 to 2500 nM.

`Cn1nc(N2CCC(=O)NC2=O)c2ccc(N3CCC(NCc4cccc(S(=O)(=O)N5CCC(Nc6ncc(Cl)cn6)CC5)c4)CC3)cc21` [Example 84, 1-(6-(4-((3-((4-((5-chloropyrimidin-2-yl)amino)piperidin-1-yl)sulfonyl)benzyl)-amino)piperidin-1-yl)-1-methyl-1H-indazol-3-yl)dihydropyrimidine-2,4(1H,3H)-dione]: the IC50 is above 2500 nM.

For the compound `Cn1nc(N2CCC(=O)NC2=O)c2ccc(N3CCC(NCc4cccc(S(=O)(=O)N5CCC(Nc6ncc(C(F)(F)F)cn6)CC5)c4)CC3)cc21` [Example 85, 1-(1-methyl-6-(4-((3-((4-((5-(trifluoro-methyl)pyrimidin-2-yl)amino)piperidin-1-yl)sulfonyl)benzyl)amino)piperidin-1-yl)-1H-indazol-3-yl)dihydropyrimidine-2,4(1H,3H)-dione], the IC50 fell in the range of 500 to 2500 nM.

As to `CN(Cc1cccc(S(=O)(=O)N2CCC(Nc3ncc(C(F)(F)F)cn3)CC2)c1)CC1CCN(c2ccc3c(N4CCC(=O)NC4=O)nn(C)c3c2)CC1` [Example 88, 1-(1-methyl-6-(4-((methyl(3-((4-((5-(trifluoromethyl)pyrimidin-2-yl)amino)-piperidin-1-yl)sulfonyl)benzyl)amino)-methyl)piperidin-1-yl)-1H-indazol-3-yl)dihydropyrimidine-2,4(1H,3H)-dione], the IC50 was 500 to 2500 nM.

`Cn1nc(N2CCC(=O)NC2=O)c2ccc(C3CCN(CC4CCN(c5cccc(S(=O)(=O)N6CCC(Nc7ncc(C(F)(F)F)cn7)CC6)c5)CC4)CC3(F)F)cc21` (stereo not shown) [Example 90, 1-(6-(3,3-difluoro-1-((1-(3-((4-((5-(trifluoromethyl)pyrimidin-2-yl)amino)-piperidin-1-yl)sulfonyl)phenyl)piperidin-4-yl)methyl)piperidin-4-yl)-1-methyl-1H-indazol-3-yl)dihydropyrimidine-2,4(1H,3H)-dione]: the IC50 was in the range of 100 to 500 nM.

Consider `CC(Cc1cccc(S(=O)(=O)N2CCC(Nc3ncc(C(F)(F)F)cn3)CC2)c1)CN1CCN(c2cc3c(cc2F)C(=O)N(C2CCC(=O)NC2=O)C3)CC1` (stereo not shown) [Example 96, 3-(6-fluoro-5-(4-(2-methyl-3-(3-((4-((5-(trifluoromethyl)pyrimidin-2-yl)amino)-piperidin-1-yl)sulfonyl)phenyl)propyl)-piperazin-1-yl)-1-oxoisoindolin-2-yl)piperidine-2,6-dione], for which the IC50 is 100 to 500 nM.

In the case of `CC(Cc1cccc(S(=O)(=O)N2CCC(Nc3ncc(Cl)cn3)CC2)c1)CN1CCN(c2cc3c(cc2F)C(=O)N(C2CCC(=O)NC2=O)C3)CC1` (stereo not shown) [Example 97, 3-(5-(4-(3-(3-((4-((5-chloropyrimidin-2-yl)amino)piperidin-1-yl)sulfonyl)phenyl)-2-methylpropyl)piperazin-1-yl)-6-fluoro-1-oxoisoindolin-2-yl)piperidine-2,6-dione], the IC50 fell in the range of 500 to 2500 nM.

As for `O=C1CCC(N2Cc3cc(N4CCN(CC5CCN(c6cccc(S(=O)(=O)N7CCC(Nc8ncc(Cl)cn8)CC7)c6)CC5)CC4)ccc3C2=O)C(=O)N1` (stereo not shown) [Example 98, 3-(5-(4-((1-(3-((4-((5-chloropyrimidin-2-yl)amino)piperidin-1-yl)sulfonyl)phenyl)-piperidin-4-yl)methyl)piperazin-1-yl)-1-oxoisoindolin-2-yl)piperidine-2,6-dione], the IC50 is 100 to 500 nM.

In the case of `O=C1CCC(N2Cc3cc(N4CCN(CC5CCN(c6cccc(S(=O)(=O)N7CCC(Nc8ncc(C(F)(F)F)cn8)CC7)c6)CC5)CC4)c(F)cc3C2=O)C(=O)N1` (stereo not shown) [Example 101, 3-(6-fluoro-1-oxo-5-(4-((1-(3-((4-((5-(trifluoromethyl)pyrimidin-2-yl)amino)-piperidin-1-yl)sulfonyl)phenyl)piperidin-4-yl)methyl)piperazin-1-yl)isoindolin-2-yl)piperidine-2,6-dione], the IC50 was 100 to 500 nM.

For `CC(Cc1cccc(S(=O)(=O)N2CCC(Nc3ncc(OC(F)F)cn3)CC2)c1)CN1CCN(c2cc3c(cc2F)C(=O)N(C2CCC(=O)NC2=O)C3)CC1` (stereo not shown) [Example 102, 3-(5-(4-(3-(3-((4-((5-(difluoromethoxy)-pyrimidin-2-yl)amino)piperidin-1-yl)sulfonyl)phenyl)-2-methylpropyl)-piperazin-1-yl)-6-fluoro-1-oxoisoindolin-2-yl)piperidine-2,6-dione], the IC50 lay within 500 to 2500 nM.

Regarding `O=C1CCC(N2Cc3cc(N4CCN(CC5CCN(c6cccc(S(=O)(=O)N7CCC(Nc8ncc(Cl)cn8)CC7)c6)CC5)CC4)c(F)cc3C2=O)C(=O)N1` (stereo not shown) [Example 103, 3-(5-(4-((1-(3-((4-((5-chloropyrimidin-2-yl)amino)piperidin-1-yl)sulfonyl)phenyl)-piperidin-4-yl)methyl)piperazin-1-yl)-6-fluoro-1-oxoisoindolin-2-yl)piperidine-2,6-dione], the IC50 was 500 to 2500 nM.
